Assay results taken from patent publication US10435408B2, “Azepine derivatives as 5-HT7 receptor modulators” (KOREA INSTITUTE OF SCIENCE AND TECHNOLOGY, priority 2016, dated 2019).
pKi: −log10 of the molar value.

Target: Human gene recombinant 5-HT7 receptor (Homo sapiens (Human), UniProt P34969)
Assay: Measurement of binding affinity for serotonin 5-HT7 receptor ([3H]LSD radioligand binding)
Conditions: [3H]LSD 1 nM, 5-HT7 receptor membrane from CHO cells; for inhibition at 10 µM: 10 μM compound; for pKi: nonlinear regression
Method: Human gene recombinant 5-HT7 receptor expressed in Chinese hamster ovary (CHO) cells was used. [^3H]LSD 1 nM, the 5-HT7 receptor membrane (15 μg/well), each of the samples of Example 1-20 at various concentrations, 10 mM MgCl2, and 50 mM Tris-HCl buffer (pH 7.4) containing 0.1 mM EDTA were added to a vessel until the final volume reached 0.25 ml. The reaction mixture was incubated at 25° C. for 90 min. The incubated reaction mixture was rapidly passed through a Whatman GF/C glass fiber filter, which had been previously soaked with 0.3% polyethyleneimine, using a Brandel-Harvester to quench the reaction and washed with cold 50 mM Tris-HCl buffer. The filter was covered with MeltiLex, sealed in a sample bag, and dried in an oven. The radioactivity retained in the filter was counted using MicroBeta (Wallac). Non-specific binding was determined in the presence of 0.5 μM Mianserin.

Sequence of Human gene recombinant 5-HT7 receptor (P34969 whole entry): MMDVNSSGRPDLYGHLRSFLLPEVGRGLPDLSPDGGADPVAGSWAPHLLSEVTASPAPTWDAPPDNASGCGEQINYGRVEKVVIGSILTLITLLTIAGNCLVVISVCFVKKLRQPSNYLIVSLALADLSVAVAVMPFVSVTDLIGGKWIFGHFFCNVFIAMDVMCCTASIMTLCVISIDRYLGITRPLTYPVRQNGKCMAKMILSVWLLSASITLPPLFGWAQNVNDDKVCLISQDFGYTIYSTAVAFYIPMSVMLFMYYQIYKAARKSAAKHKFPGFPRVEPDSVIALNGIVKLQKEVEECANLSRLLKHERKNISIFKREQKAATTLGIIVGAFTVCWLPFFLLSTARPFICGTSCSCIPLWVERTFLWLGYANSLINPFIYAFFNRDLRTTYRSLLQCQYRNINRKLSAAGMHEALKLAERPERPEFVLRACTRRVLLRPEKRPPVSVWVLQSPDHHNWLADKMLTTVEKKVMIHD

| SMILES | inhibition at 10 µM | pKi |
| --- | --- | --- |
| Fc1ccccc1-c1n[nH]c2c1CCNCC2 [Example 2, 3-(2-fluorophenyl)-1,4,5,6,7,8-hexahydropyrazolo[3,4-d]azepine] | 78.9% | 6.15 |
| Fc1cccc(-c2n[nH]c3c2CCNCC3)c1 [Example 3, 3-(3-fluorophenyl)-1,4,5,6,7,8-hexahydropyrazolo[3,4-d]azepine] | 72.9% | 5.91 |
| Clc1ccccc1-c1n[nH]c2c1CCNCC2 [Example 4, 3-(2-chlorophenyl)-1,4,5,6,7,8-hexahydropyrazolo[3,4-d]azepine] | 88.7% | 6.41 |
| Clc1cccc(-c2n[nH]c3c2CCNCC3)c1 [Example 5, 3-(3-chlorophenyl)-1,4,5,6,7,8-hexahydropyrazolo[3,4-d]azepine] | 79.2% | 6.05 |
| Cc1cccc(-c2n[nH]c3c2CCNCC3)c1 [Example 8, 3-(m-tolyl)-1,4,5,6,7,8-hexahydropyrazolo[3,4-d]azepine] | 63% | 5.84 |
| Cc1ccc(-c2n[nH]c3c2CCNCC3)cc1 [Example 9, 3-(p-tolyl)-1,4,5,6,7,8-hexahydropyrazolo[3,4-d]azepine] | 94.2% | 7.33 |
| Fc1ccccc1-c1noc2c1CCNCC2 [Example 11, 3-(2-fluorophenyl)-5,6,7,8-tetrahydro-4H-isoxazolo[4,5-d]azepine] | 77.9% | 6.44 |
| Fc1ccc(-c2noc3c2CCNCC3)cc1 [Example 13, 3-(4-fluorophenyl)-5,6,7,8-tetrahydro-4H-isoxazolo[4,5-d]azepine] | 94.6% | 7.28 |
| Clc1ccccc1-c1noc2c1CCNCC2 [Example 14, 3-(2-chlorophenyl)-5,6,7,8-tetrahydro-4H-isoxazolo[4,5-d]azepine] | 84.5% | 6.37 |
| Clc1cccc(-c2noc3c2CCNCC3)c1 [Example 15, 3-(3-chlorophenyl)-5,6,7,8-tetrahydro-4H-isoxazolo[4,5-d]azepine] | 78.7% | 6.43 |
| Clc1ccc(-c2noc3c2CCNCC3)cc1 [Example 16, 3-(4-chlorophenyl)-5,6,7,8-tetrahydro-4H-isoxazolo[4,5-d]azepine] | 93.8% | 7.15 |
| Cc1cccc(-c2noc3c2CCNCC3)c1 [Example 18, 3-(m-tolyl)-5,6,7,8-tetrahydro-4H-isoxazolo[4,5-d]azepine] | 76.3% | 6.30 |

Other lines, results leading:

| inhibition at 10 µM | pKi | SMILES |
| --- | --- | --- |
| 84.2% | 6.49 | c1ccc(-c2n[nH]c3c2CCNCC3)cc1 [Example 1, 3-phenyl-1,4,5,6,7,8-hexahydropyrazolo[3,4-d]azepine] |
| 96.4% | 7.52 | Clc1ccc(-c2n[nH]c3c2CCNCC3)cc1 [Example 6, 3-(4-chlorophenyl)-1,4,5,6,7,8-hexahydropyrazolo[3,4-d]azepine] |
| 68.5% | 6.06 | Cc1ccccc1-c1n[nH]c2c1CCNCC2 [Example 7, 3-(o-tolyl)-1,4,5,6,7,8-hexahydropyrazolo[3,4-d]azepine] |
| 84.3% | 6.50 | c1ccc(-c2noc3c2CCNCC3)cc1 [Example 10, 3-phenyl-5,6,7,8-tetrahydro-4H-isoxazolo[4,5-d]azepine] |
| 57.5% | 5.85 | Fc1cccc(-c2noc3c2CCNCC3)c1 [Example 12, 3-(3-fluorophenyl)-5,6,7,8-tetrahydro-4H-isoxazolo[4,5-d]azepine] |
| 41.8% |  | Cc1ccccc1-c1noc2c1CCNCC2 [Example 17, 3-(o-tolyl)-5,6,7,8-tetrahydro-4H-isoxazolo[4,5-d]azepine] |
| 96.3% | 7.80 | Cc1ccc(-c2noc3c2CCNCC3)cc1 [Example 19, 3-(p-tolyl)-5,6,7,8-tetrahydro-4H-isoxazolo[4,5-d]azepine] |
| 87.9% | 6.52 | COc1ccccc1-c1noc2c1CCNCC2 [Example 20, 3-(2-methoxyphenyl)-5,6,7,8-tetrahydro-4H-isoxazolo[4,5-d]azepine] |
